Some test systems named below: SN12C renal; M14 melanoma; NCI-H522 lung; MDA-MB-435; COLO 205 colon; SK-MEL-2 melanoma; NCI-H23 lung; OVCAR-8 ovarian; PC-3 prostate; OVCAR-3 ovarian.
Common to all, as to test: growth of human tumour cells (NCI), 48 h

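In this assay, cells in 96-well plates receive the compound at five concentrations for 48 hours. Endpoints are linearly interpolated between the surrounding concentrations. GI50 is the concentration that inhibits growth by half. TGI marks complete inhibition of growth.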 Bounds are passed on as bounds.

As to `Nc1ncnc2c1nnn2C1OC(CO)C(O)C1O` (stereo not drawn), the TGI in the experiment on SN12C renal came to 6.77 µM; in the experiment on M14 melanoma, 4.91 µM; with NCI-H522 lung it was 4.51 µM; with MDA-MB-435, 2.44 µM; in the experiment on COLO 205 colon, 2.73 µM; in the experiment on SK-MEL-2 melanoma, 1.74 µM. Moreover, the TGI is 10.8 µM in the experiment with NCI-H23 lung, 8.97 µM in the experiment on OVCAR-8 ovarian, 5.38 µM in the experiment with PC-3 prostate and 9.26 µM with OVCAR-3 ovarian. Further, the GI50 is 261 nM with M14 melanoma, 273 nM in the experiment on MDA-MB-435 and 247 nM with PC-3 prostate.

Turning to `Cc1cc(I)cc(CN(C)CCCN2CCCCC2)c1O`, the GI50 was 49.9 µM in the experiment on SN12C renal; 14400 nM with M14 melanoma; 16.7 µM in the experiment on NCI-H522 lung; 15000 nM in the experiment with MDA-MB-435; 13700 nM in the experiment with COLO 205 colon; 18.4 µM in the experiment with SK-MEL-2 melanoma. Further, the GI50 was 19000 nM with NCI-H23 lung, 26900 nM in the experiment on OVCAR-8 ovarian, 15400 nM in the experiment with PC-3 prostate and 15.9 µM with OVCAR-3 ovarian. Moreover, the TGI in the experiment on SN12C renal was above 100 µM; with M14 melanoma, 27.5 µM; in the experiment with NCI-H522 lung, 31.4 µM; in the experiment with MDA-MB-435 it was 33.4 µM; in the experiment with COLO 205 colon, 27.3 µM; in the experiment on SK-MEL-2 melanoma, 37 µM. For the same compound, the TGI in the experiment on NCI-H23 lung was 56.5 µM; in the experiment on OVCAR-8 ovarian, above 100 µM; with PC-3 prostate it was 32.9 µM; in the experiment on OVCAR-3 ovarian, 33.1 µM.

In the case of `COc1cc(NCc2ccc3oc(=O)c(-c4ccccc4)nc3c2)cc(OC)c1OC`, the TGI in the experiment with SN12C renal, with M14 melanoma, in the experiment with NCI-H522 lung, with MDA-MB-435, in the experiment on COLO 205 colon and with SK-MEL-2 melanoma was above 10 µM each time. Besides, the TGI in the experiment with NCI-H23 lung, in the experiment on OVCAR-8 ovarian, in the experiment on PC-3 prostate and with OVCAR-3 ovarian was above 10 µM in each case.

As to `CN(C(=O)c1ccc(C(F)(F)F)cc1)c1ccc(Oc2ccc3c(c2)cc(C(=O)N2CCN(Cc4ccc(OC(F)F)cc4)CC2)n3C)nc1`, the GI50 in the experiment on SN12C renal is above 100 µM; in the experiment with M14 melanoma it was above 100000 nM; in the experiment with NCI-H522 lung, 0.677 µM; with MDA-MB-435, 3730 nM; with COLO 205 colon, 60000 nM; with SK-MEL-2 melanoma, 11.9 µM. In addition, the GI50 in the experiment on NCI-H23 lung was below 10 nM; in the experiment on OVCAR-8 ovarian it was 1710 nM; with PC-3 prostate it was 2240 nM; in the experiment on OVCAR-3 ovarian, 11.3 µM. Besides, the TGI is above 100 µM in the experiment with SN12C renal; above 100 µM in the experiment on M14 melanoma; above 90 µM in the experiment on NCI-H522 lung; above 100 µM with MDA-MB-435; above 100 µM in the experiment on COLO 205 colon; above 100 µM in the experiment on SK-MEL-2 melanoma. The TGI in the experiment with NCI-H23 lung, in the experiment on OVCAR-8 ovarian, in the experiment with PC-3 prostate and in the experiment with OVCAR-3 ovarian was above 100 µM in each case.

As for `COc1ccc(/C=C(/C#N)n2nnc3cccc(F)c32)cc1`, the GI50 in the experiment with SN12C renal is 1.93 µM; in the experiment on M14 melanoma it was 467 nM; in the experiment on NCI-H522 lung it was 0.301 µM; with MDA-MB-435, 180 nM; in the experiment with COLO 205 colon, 811 nM; in the experiment with SK-MEL-2 melanoma, 0.653 µM. In addition, the GI50 with NCI-H23 lung was 1230 nM; with OVCAR-8 ovarian, 1970 nM; in the experiment on PC-3 prostate, 1630 nM; in the experiment with OVCAR-3 ovarian it was 0.316 µM. The TGI was above 100 µM with SN12C renal; 3.89 µM in the experiment on M14 melanoma; above 100 µM with NCI-H522 lung; 0.471 µM with MDA-MB-435; above 100 µM with COLO 205 colon; 21.9 µM in the experiment with SK-MEL-2 melanoma. In addition, the TGI with NCI-H23 lung is 6.3 µM; in the experiment on OVCAR-8 ovarian, above 100 µM; in the experiment with PC-3 prostate, above 100 µM; in the experiment with OVCAR-3 ovarian, 0.899 µM.

Regarding `CCN(CC)c1ccc(-c2cc(-c3cc(OC)c(OC)c(OC)c3)nc(N3CCOCC3)c2C#N)cc1`, the GI50 is 0.805 µM in the experiment on SN12C renal; 292 nM with M14 melanoma; 7.07 µM in the experiment on NCI-H522 lung; 1320 nM with MDA-MB-435; 439 nM with COLO 205 colon; 3.15 µM in the experiment with SK-MEL-2 melanoma. In addition, the GI50 in the experiment with NCI-H23 lung is 5250 nM; with OVCAR-8 ovarian, 1910 nM; in the experiment with PC-3 prostate, 1270 nM; with OVCAR-3 ovarian, 3.19 µM. In addition, the TGI in the experiment with SN12C renal is above 100 µM; with M14 melanoma, 1.33 µM; in the experiment on NCI-H522 lung, 83.3 µM; in the experiment on MDA-MB-435, 13.7 µM; with COLO 205 colon it was 7.48 µM; with SK-MEL-2 melanoma, above 26.2 µM. Moreover, the TGI with NCI-H23 lung is above 100 µM; with OVCAR-8 ovarian, above 100 µM; in the experiment with PC-3 prostate, above 100 µM; with OVCAR-3 ovarian, 20.9 µM.

In the case of `ClCc1cccc(Cn2cnc3ncnc(Cl)c32)c1`, the GI50 in the experiment with SN12C renal was 7.02 µM; in the experiment on M14 melanoma it was 3050 nM; in the experiment on NCI-H522 lung, 6.19 µM; with MDA-MB-435 it was 3460 nM; in the experiment on COLO 205 colon, 2610 nM; in the experiment on SK-MEL-2 melanoma, 5.76 µM. In addition, the GI50 with NCI-H23 lung is 1230 nM; with OVCAR-8 ovarian, 3100 nM; in the experiment with PC-3 prostate, 2130 nM; in the experiment on OVCAR-3 ovarian it was 1.77 µM. Besides, the TGI in the experiment on SN12C renal is 20.2 µM; in the experiment with M14 melanoma, 14.6 µM; with NCI-H522 lung it was 23.9 µM; in the experiment with MDA-MB-435, 12.9 µM; in the experiment with COLO 205 colon it was above 100 µM; in the experiment with SK-MEL-2 melanoma it was 22.8 µM. Further, the TGI turned out to be 3.38 µM in the experiment with NCI-H23 lung, 14.9 µM in the experiment with OVCAR-8 ovarian, 5.32 µM in the experiment on PC-3 prostate and 3.23 µM with OVCAR-3 ovarian.

Take `O=S(=O)(CCn1c(Sc2ccccc2)c(Sc2ccccc2)c2ccccc21)c1ccccc1`: the TGI in the experiment on SN12C renal, in the experiment with M14 melanoma, in the experiment with NCI-H522 lung, in the experiment with MDA-MB-435, in the experiment on COLO 205 colon and in the experiment on SK-MEL-2 melanoma was above 100 µM in each case. Also, the TGI with NCI-H23 lung, in the experiment on OVCAR-8 ovarian, in the experiment on PC-3 prostate and in the experiment with OVCAR-3 ovarian was above 100 µM in each case.

For the origin of these results see PubChem BioAssay (NCI).
